{
  "source": "patent US8063103B2",
  "about": "“Polymorphs of acyl sulfonamides” (Roche Palo Alto LLC, priority 2008, dated 2011)",
  "experimental": "Amorphous state of Ib can be prepared by dissolving Form VIII in 82% t-butanol/18% water at a drug concentration of ˜6 mg/mL. This solution was lyophilized overnight (˜18 hours) to form the amorphous material.",
  "note": "Structures can show the parent of a compound that is named as a salt. Where two headings read alike, the source gives them in different places.",
  "data": [
    {"compound": "CCC(=O)NS(=O)(=O)c1ccc(NC(=O)Cc2ccc(Br)c(Oc3cc(Cl)cc(C#N)c3)c2F)c(Cl)c1", "note": "[amorphous material, 2-[4-Bromo-3-(3-chloro-5-cyano-phenoxy)-2-fluoro-phenyl]-N-(2-chloro-4-propionylsulfamoyl-phenyl)-acetamide, sodium salt]", "values": [
      {"measurement": "stability of amorphous material on storage", "setting": "25C/60 RH, at least one week", "value": "stable at 25C/60 RH for at least one week"},
      {"measurement": "stability of amorphous material on storage", "setting": "40C/75 RH", "value": "not at 40C/75 RH"}
    ]}
  ]
}
